The values that follow come from PMC8855934 (Journal of medicinal chemistry, 2021).

Series [1] relates to AR protein (22Rvl cell line with F876L mutation). In words: AR degradation in 22Rv1 cell line. The format is cell-based, human. The settings on record: 22Rv1, 24 h.
In series [2] the target is T1, AR protein (Homo sapiens, UniProt P10275).
T1 sequence (P10275 1-920): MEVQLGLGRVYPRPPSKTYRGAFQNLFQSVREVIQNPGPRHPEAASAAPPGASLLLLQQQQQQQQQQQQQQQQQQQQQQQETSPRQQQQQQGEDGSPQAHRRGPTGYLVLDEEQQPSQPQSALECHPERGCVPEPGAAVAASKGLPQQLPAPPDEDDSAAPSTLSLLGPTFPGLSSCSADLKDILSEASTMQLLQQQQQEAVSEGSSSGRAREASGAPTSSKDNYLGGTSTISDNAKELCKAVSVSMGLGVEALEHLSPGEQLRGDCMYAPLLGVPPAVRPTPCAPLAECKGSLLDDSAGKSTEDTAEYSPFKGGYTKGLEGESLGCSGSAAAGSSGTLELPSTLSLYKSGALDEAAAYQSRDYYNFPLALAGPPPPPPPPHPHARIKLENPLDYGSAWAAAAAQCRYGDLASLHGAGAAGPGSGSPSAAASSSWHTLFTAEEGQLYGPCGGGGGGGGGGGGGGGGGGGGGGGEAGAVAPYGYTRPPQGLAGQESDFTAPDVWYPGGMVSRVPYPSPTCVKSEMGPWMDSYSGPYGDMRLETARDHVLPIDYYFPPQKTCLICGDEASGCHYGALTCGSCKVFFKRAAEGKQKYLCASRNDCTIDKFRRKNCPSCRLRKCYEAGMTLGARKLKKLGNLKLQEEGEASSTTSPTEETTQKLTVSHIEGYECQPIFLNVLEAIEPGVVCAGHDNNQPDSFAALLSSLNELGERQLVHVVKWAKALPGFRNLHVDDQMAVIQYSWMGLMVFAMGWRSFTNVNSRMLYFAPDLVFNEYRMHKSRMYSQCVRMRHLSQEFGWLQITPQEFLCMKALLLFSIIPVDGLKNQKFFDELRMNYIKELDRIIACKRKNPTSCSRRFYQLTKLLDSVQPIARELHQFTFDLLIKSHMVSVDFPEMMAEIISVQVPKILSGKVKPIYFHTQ
The settings on record: single oral administration 20 mg/kg, 6 and 24 h time-points, Western blotting. Background: Immunoblotting shows a protein as a band on a membrane.

Series [3] deals with T2, AR double mutations (L702H and T878A) (Homo sapiens, UniProt P10275, L702H/T878A).
T2 sequence (P10275 1-920 L702H/T878A): T1 sequence (P10275 1-920) with L702H, T878A
As to conditions: MDA-PCa-2b, 24 h, Figure 7.

The target of series [4] is T1, AR protein. The series can be described thus: AR degradation in VCaP cell line. The format is cell-based.
Another series in a line: Pharmacokinetics in mice. The format is in vivo. As to conditions: male, mouse, in vivo.
Another series concerns the target T3, AR T878A mutant protein (Homo sapiens, UniProt P10275, T878A).
T3 sequence (P10275 1-920 T878A): T1 sequence (P10275 1-920) with T878A

Series [5] can be described thus: Tissue distribution studies of ARD-2585 in mice bearing VCaP tumors. The format is in vivo. As to conditions: male, SCID, mouse, po, 20 mg/kg.

Numbering of substitutions follows the chain as printed.

For the molecule `CN(c1ccc(C#N)c(Cl)c1)[C@H]1CC[C@H](NC(=O)c2ccc(N3CCN(C4CN(c5ccc6c(c5)C(=O)N(C5CCC(=O)NC5=O)C6=O)C4)CC3)cc2)CC1` (stereo partly drawn) [Compound 43, N-(1R,4R)-4-(((3-Chloro-4-cyanophenyl)(methyl)amino)-cyclohexyl)-4-(4-(1-(2-(2,6-dioxopiperidin-3-yl)-1,3-dioxoisoindolin-5-yl)azetidin-3-yl)piperazin-1-yl)benzamide], the “Dmax, AR degradation in 22Rv1 cell line” value in series [1] is reported as above 95%. Also, the “reduction of AR protein level in VCaP tumor tissue” value at AR protein [2] is “effective”. Also, the “concentration as low as which AR protein level is reduced by >80%” value in series [3] is recorded as 1 nM. For the same molecule, on AR protein [4] (VCaP cell line, 24 h treatment, Western blotting, listed as ARD-2585), the “Dmax, AR degradation in VCaP cell line” value is above 98%. Besides, the “reduction of AR protein (mechanism study)” value at AR protein [4] (VCaP cells, 100 nM, 3 h treatment) is “effectively reduces”; on AR T878A mutant protein (LNCaP cells, 100 nM, 3 h treatment) it was “effectively reduces”. For the same molecule, the “reduction of AR protein level (degradation kinetics)” value at AR protein [4] (VCaP, 1 h) is on record as “effectively reduce”; on AR T878A mutant protein (LNCaP, 1 h) it was “effectively reduce”. The distribution volume (Vd) in “Pharmacokinetics in mice” (iv, 2 mg/kg) is 1.8 to 2.1 L/kg. The clearance in “Pharmacokinetics in mice” (iv, 2 mg/kg) lay within 3.33 to 5 mL/min/kg. This molecule came in with a half-life in “Pharmacokinetics in mice” (iv, 2 mg/kg) of 330 to 450 min. This molecule displayed an exposure AUC(0-t) in “Pharmacokinetics in mice” (po, 3 mg/kg) of 8640 ng·h/mL. The “Dmax, AR degradation in LNCaP cell line” value at AR T878A mutant protein (LNCaP cell line (AR T878A), Western blotting, listed as ARD-2585) was above 98%. In series [5] (plasma), this molecule came in with a concentration at 6 h of 134 ± 98 ng/mL. The concentration at 24 h in series [5] (plasma) is 214 ± 78 ng/mL; in series [5] (prostate), 109 ± 23 ng/g.

A word on the Vd: it is the apparent volume that relates the amount in the body to the concentration in plasma or blood. A lower Vd goes with little distribution into tissue. As usually defined, the clearance is the volume of plasma or blood freed of the substance per unit of time. High values mean a high capacity for elimination, low ones a low capacity for elimination. By half-life is commonly meant the time in which the quantity being followed falls by half. A high value points to slow loss. A word on the AUC(0-t): it is exposure summed from dosing to a finite time, without extrapolation to infinity. Low readings indicate low exposure, high ones high exposure.
